Legend:
[1] = target: Protein kinase C iota type (Homo sapiens) (UniProt P41743); conditions: Compound concentration 100.0 nM
[2] = target: Maternal embryonic leucine zipper kinase (Homo sapiens) (UniProt Q14680); conditions: Compound concentration 100.0 nM
[3] = target: Protein kinase C eta type (Homo sapiens) (UniProt P24723); conditions: Compound concentration 100.0 nM
[4] = target: Alpha-2A adrenergic receptor (Homo sapiens) (UniProt P08913); conditions: Compound concentration 10.0 uM
[5] = target: Serine/threonine-protein kinase Nek3 (Homo sapiens) (UniProt P51956); conditions: Compound concentration 100.0 nM
[6] = target: Ankyrin repeat and protein kinase domain-containing protein 1 (Homo sapiens) (UniProt Q8NFD2); conditions: Compound concentration 100.0 nM
[7] = system: Epidermal growth factor receptor (Homo sapiens), P00533 [UNDEFINED MUTATION]; conditions: Compound concentration 100.0 nM
[8] = target: Dual specificity testis-specific protein kinase 1 (Homo sapiens) (UniProt Q15569); conditions: Compound concentration 100.0 nM
[9] = system: Phosphatidylinositol 4,5-bisphosphate 3-kinase catalytic subunit alpha isoform (Homo sapiens), P42336 [M1043I]; conditions: Compound concentration 100.0 nM
[10] = target: Calcium-dependent protein kinase 1 (Plasmodium falciparum) (UniProt P62344); conditions: Compound concentration 100.0 nM
[11] = system: Tyrosine-protein kinase ABL1 (Homo sapiens), P00519 [F317I]; conditions: Compound concentration 100.0 nM
[12] = target: Serine/threonine-protein kinase Sgk1 (Homo sapiens) (UniProt O00141); conditions: Compound concentration 100.0 nM
[13] = target: Testis-specific serine/threonine-protein kinase 3 (Homo sapiens) (UniProt Q96PN8); conditions: Compound concentration 100.0 nM
[14] = target: Serine/threonine-protein kinase MARK2 (Homo sapiens) (UniProt Q7KZI7); conditions: Compound concentration 100.0 nM
[15] = target: SRSF protein kinase 2 (Homo sapiens) (UniProt P78362); conditions: Compound concentration 100.0 nM
[16] = target: TGF-beta receptor type-1 (Homo sapiens) (UniProt P36897); conditions: Compound concentration 100.0 nM
[17] = target: 5-hydroxytryptamine receptor 1A (Homo sapiens) (UniProt P08908); conditions: Compound concentration 10.0 uM
LIM domain kinase 1 = LIM domain kinase 1 (Homo sapiens, UniProt P53667); conditions: Compound concentration 100.0 nM
[18] = target: Casein kinase I isoform alpha-like (Homo sapiens) (UniProt Q8N752); conditions: Compound concentration 100.0 nM
[19] = target: Rhodopsin kinase GRK1 (Homo sapiens) (UniProt Q15835); conditions: Compound concentration 100.0 nM
[20] = target: BDNF/NT-3 growth factors receptor (Homo sapiens) (UniProt Q16620); conditions: Compound concentration 100.0 nM
[21] = target: Serine/threonine-protein kinase B-raf (Homo sapiens) (UniProt P15056); conditions: Compound concentration 100.0 nM
[22] = target: Dual specificity protein kinase CLK1 (Homo sapiens) (UniProt P49759); conditions: Compound concentration 100.0 nM
[23] = target: Tyrosine-protein kinase ABL1 (Homo sapiens) (UniProt P00519); conditions: Compound concentration 100.0 nM
[24] = target: Serine/threonine-protein kinase PRP4 homolog (Homo sapiens) (UniProt Q13523); conditions: Compound concentration 100.0 nM
[25] = system: Tyrosine-protein kinase ABL1 (Homo sapiens), P00519 [H396P]; conditions: Compound concentration 100.0 nM
[26] = target: Ribosomal protein S6 kinase beta-1 (Homo sapiens) (UniProt P23443); conditions: Compound concentration 100.0 nM
[27] = target: Focal adhesion kinase 1 (Homo sapiens) (UniProt Q05397); conditions: Compound concentration 100.0 nM
[28] = target: Platelet-derived growth factor receptor beta (Homo sapiens) (UniProt P09619); conditions: Compound concentration 100.0 nM
[29] = target: Serine/threonine-protein kinase VRK2 (Homo sapiens) (UniProt Q86Y07); conditions: Compound concentration 100.0 nM
[30] = target: Dual specificity tyrosine-phosphorylation-regulated kinase 1B (Homo sapiens) (UniProt Q9Y463); conditions: Compound concentration 100.0 nM
[31] = target: Casein kinase I isoform gamma-2 (Homo sapiens) (UniProt P78368); conditions: Compound concentration 100.0 nM
[32] = target: Serine/threonine-protein kinase TAO3 (Homo sapiens) (UniProt Q9H2K8); conditions: Compound concentration 100.0 nM
[33] = target: Proto-oncogene tyrosine-protein kinase ROS (Homo sapiens) (UniProt P08922); conditions: Compound concentration 100.0 nM
[34] = target: Cyclin-dependent kinase 5 (Homo sapiens) (UniProt Q00535); conditions: Compound concentration 100.0 nM
[35] = system: Mast/stem cell growth factor receptor Kit (Homo sapiens), P10721 [D816H]; conditions: Compound concentration 100.0 nM
[36] = target: Mu-type opioid receptor (Homo sapiens) (UniProt P35372); conditions: Compound concentration 10.0 uM
[37] = target: Serine/threonine-protein kinase TBK1 (Homo sapiens) (UniProt Q9UHD2); conditions: Compound concentration 100.0 nM
[38] = target: Cyclin-dependent kinase 19 (Homo sapiens) (UniProt Q9BWU1); conditions: Compound concentration 100.0 nM
[39] = system: Phosphatidylinositol 4,5-bisphosphate 3-kinase catalytic subunit alpha isoform (Homo sapiens), P42336 [C420R]; conditions: Compound concentration 100.0 nM
[40] = target: G protein-coupled receptor kinase 4 (Homo sapiens) (UniProt P32298); conditions: Compound concentration 100.0 nM
[41] = system: ALK tyrosine kinase receptor (Homo sapiens), Q9UM73 [C1156Y]; conditions: Compound concentration 100.0 nM
[42] = target: Calcium/calmodulin-dependent protein kinase type 1B (Homo sapiens) (UniProt Q6P2M8); conditions: Compound concentration 100.0 nM
[43] = target: Cyclin-dependent kinase 3 (Homo sapiens) (UniProt Q00526); conditions: Compound concentration 100.0 nM
[44] = system: Receptor-type tyrosine-protein kinase FLT3 (Homo sapiens), P36888 [D835H]; conditions: Compound concentration 100.0 nM

Platelet-derived growth factor receptor beta (Homo sapiens), sequence (P09619 whole entry): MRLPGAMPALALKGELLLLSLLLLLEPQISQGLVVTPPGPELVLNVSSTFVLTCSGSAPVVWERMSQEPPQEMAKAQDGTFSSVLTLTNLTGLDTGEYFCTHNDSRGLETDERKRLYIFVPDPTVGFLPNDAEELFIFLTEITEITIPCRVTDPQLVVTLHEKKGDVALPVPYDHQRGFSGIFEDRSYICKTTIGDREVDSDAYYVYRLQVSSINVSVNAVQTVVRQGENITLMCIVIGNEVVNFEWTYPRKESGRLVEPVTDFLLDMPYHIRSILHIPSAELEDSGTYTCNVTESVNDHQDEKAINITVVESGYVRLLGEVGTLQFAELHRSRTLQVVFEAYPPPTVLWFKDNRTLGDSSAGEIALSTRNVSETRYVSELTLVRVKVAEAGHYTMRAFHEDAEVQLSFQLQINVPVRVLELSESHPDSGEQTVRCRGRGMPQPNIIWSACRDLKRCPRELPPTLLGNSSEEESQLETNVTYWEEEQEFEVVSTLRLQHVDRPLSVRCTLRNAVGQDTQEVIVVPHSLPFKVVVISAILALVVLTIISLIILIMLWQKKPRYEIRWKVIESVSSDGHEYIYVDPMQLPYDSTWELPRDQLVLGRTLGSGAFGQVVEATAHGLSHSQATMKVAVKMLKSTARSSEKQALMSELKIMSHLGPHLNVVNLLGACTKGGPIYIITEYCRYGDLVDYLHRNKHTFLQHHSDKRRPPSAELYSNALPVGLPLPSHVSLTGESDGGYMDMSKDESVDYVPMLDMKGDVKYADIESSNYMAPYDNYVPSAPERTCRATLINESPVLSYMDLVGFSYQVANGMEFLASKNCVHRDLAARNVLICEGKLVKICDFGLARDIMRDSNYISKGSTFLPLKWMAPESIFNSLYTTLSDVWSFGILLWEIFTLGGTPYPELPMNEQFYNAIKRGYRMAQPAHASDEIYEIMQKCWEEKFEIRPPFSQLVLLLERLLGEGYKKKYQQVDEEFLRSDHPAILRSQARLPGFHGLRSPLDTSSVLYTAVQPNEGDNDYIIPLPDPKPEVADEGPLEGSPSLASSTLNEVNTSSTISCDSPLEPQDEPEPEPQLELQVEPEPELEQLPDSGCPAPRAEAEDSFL
Mast/stem cell growth factor receptor Kit (Homo sapiens), P10721 [D816H], sequence (P10721 whole entry D816H): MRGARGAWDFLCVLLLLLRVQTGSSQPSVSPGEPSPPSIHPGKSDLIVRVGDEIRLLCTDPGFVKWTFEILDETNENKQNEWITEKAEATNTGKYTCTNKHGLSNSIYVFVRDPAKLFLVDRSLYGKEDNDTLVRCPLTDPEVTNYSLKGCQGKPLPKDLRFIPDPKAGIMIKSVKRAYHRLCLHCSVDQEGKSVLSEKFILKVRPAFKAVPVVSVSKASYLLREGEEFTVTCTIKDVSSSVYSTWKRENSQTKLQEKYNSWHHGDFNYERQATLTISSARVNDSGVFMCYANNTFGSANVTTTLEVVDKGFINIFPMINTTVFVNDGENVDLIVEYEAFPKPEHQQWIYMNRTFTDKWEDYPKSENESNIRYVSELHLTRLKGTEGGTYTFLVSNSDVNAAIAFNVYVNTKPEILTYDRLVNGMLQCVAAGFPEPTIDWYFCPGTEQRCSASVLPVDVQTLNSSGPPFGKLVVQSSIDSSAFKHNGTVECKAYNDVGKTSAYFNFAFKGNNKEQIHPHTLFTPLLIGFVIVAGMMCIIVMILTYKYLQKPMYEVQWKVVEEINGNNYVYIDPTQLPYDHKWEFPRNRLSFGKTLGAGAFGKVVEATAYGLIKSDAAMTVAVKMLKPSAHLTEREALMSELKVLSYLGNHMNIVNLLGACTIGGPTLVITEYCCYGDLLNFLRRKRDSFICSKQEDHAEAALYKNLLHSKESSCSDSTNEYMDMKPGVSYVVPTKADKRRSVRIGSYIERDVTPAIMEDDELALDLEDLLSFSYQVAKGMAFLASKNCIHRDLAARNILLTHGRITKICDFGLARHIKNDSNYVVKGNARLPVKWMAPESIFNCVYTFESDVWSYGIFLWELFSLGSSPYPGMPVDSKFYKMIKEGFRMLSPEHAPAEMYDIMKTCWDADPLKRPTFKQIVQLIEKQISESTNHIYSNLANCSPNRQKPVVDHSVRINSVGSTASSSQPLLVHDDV
Proto-oncogene tyrosine-protein kinase ROS (Homo sapiens), sequence (P08922 whole entry): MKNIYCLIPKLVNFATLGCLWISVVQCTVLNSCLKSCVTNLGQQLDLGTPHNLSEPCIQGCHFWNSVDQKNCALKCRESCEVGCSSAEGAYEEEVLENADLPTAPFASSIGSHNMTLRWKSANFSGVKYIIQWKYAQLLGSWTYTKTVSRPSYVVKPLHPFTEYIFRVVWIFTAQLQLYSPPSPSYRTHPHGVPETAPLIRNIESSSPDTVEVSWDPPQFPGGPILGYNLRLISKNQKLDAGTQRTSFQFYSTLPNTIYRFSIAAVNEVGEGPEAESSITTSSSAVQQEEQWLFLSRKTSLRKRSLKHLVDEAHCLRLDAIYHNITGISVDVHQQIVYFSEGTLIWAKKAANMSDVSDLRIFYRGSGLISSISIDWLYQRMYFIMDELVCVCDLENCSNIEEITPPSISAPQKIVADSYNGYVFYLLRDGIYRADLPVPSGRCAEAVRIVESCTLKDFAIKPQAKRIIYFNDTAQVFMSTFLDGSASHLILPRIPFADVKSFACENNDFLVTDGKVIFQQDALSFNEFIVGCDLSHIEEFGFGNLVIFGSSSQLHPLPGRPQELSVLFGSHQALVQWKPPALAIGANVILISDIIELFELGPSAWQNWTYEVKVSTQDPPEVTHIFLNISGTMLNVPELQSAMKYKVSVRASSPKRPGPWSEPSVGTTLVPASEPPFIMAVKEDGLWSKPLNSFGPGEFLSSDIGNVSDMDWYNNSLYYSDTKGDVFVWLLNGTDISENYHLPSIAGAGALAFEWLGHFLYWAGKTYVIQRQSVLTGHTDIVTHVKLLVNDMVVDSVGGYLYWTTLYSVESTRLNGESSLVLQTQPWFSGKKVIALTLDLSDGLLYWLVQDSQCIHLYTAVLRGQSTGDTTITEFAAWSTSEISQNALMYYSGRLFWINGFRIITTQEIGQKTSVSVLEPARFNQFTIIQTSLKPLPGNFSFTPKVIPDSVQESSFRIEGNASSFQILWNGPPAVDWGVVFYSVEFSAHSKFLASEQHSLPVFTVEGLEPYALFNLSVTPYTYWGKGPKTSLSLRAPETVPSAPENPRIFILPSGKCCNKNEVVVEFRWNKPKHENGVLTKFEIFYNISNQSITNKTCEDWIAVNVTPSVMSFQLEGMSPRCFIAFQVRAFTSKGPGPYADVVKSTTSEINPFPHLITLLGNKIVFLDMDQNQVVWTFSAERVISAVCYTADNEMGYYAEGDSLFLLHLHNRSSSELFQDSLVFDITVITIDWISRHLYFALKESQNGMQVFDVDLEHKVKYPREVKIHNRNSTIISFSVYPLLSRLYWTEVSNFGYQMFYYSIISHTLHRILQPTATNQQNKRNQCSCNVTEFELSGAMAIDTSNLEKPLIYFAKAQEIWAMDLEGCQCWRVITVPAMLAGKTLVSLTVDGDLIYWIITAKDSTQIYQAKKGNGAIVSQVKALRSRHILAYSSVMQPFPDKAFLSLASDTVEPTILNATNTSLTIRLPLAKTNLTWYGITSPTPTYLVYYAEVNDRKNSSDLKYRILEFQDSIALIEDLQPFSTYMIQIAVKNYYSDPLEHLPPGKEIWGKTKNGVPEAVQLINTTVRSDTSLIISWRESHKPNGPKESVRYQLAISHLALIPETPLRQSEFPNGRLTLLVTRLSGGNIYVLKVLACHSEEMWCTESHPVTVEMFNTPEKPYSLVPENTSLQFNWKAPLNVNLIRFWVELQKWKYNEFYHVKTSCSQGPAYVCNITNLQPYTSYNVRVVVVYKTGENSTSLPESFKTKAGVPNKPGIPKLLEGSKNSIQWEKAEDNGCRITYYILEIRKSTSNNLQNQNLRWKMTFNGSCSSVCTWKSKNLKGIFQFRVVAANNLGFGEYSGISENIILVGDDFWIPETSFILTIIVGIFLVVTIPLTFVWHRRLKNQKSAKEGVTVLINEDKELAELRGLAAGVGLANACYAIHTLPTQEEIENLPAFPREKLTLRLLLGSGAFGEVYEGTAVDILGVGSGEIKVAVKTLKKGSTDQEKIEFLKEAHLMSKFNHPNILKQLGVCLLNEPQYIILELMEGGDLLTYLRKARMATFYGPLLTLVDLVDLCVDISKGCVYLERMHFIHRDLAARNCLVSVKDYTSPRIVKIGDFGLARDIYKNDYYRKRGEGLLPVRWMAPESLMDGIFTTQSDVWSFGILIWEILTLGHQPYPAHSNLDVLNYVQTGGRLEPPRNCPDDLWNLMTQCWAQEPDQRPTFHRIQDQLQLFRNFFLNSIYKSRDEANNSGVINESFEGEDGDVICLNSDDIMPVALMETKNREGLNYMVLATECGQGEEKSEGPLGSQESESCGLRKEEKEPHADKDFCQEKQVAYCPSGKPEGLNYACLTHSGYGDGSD
Casein kinase I isoform gamma-2 (Homo sapiens), sequence (P78368 whole entry, looked up, canonical isoform): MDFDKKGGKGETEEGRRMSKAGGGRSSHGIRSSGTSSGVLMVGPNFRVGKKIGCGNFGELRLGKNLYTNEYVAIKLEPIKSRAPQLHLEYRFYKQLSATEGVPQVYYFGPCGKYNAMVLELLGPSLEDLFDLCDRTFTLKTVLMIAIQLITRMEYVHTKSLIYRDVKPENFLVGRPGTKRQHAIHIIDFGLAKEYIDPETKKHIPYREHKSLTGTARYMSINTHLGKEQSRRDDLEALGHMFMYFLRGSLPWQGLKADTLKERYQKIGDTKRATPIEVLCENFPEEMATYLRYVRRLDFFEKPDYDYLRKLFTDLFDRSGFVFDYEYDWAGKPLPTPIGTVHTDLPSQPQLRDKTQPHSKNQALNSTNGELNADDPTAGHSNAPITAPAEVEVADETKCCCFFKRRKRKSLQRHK
Testis-specific serine/threonine-protein kinase 3 (Homo sapiens), sequence (Q96PN8 whole entry): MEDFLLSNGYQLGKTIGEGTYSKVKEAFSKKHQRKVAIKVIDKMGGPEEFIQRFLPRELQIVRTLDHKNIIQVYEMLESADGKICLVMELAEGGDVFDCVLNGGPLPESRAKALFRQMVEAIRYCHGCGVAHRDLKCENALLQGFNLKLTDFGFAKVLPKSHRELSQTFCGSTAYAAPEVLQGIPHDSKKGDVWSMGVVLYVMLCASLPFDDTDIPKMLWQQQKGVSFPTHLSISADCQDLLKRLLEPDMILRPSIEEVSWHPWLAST

`Cc1ccc(-c2cnc([C@@]3(O)CC[C@H](C(=O)O)C(C)(C)C3)s2)cc1Nc1cccc(C(F)(F)F)n1` [MRL-SYKi-NC] showed a residual activity [1] of 96.2%, a residual activity [2] of 100% and a residual activity [3] of 74.6%. For the same compound, the inhibition [4] was 34.5%, the residual activity [5] was 82.8% and the residual activity [6] was 93.5%. For the same compound, the residual activity [7] was 100%, the residual activity [8] was 95.2% and the residual activity [9] was 90.4%. It also gave a residual activity [10] of 90.1%, a residual activity [11] of 84.1% and a residual activity [12] of 64.9%. It also gave a residual activity [13] of 100%, a residual activity [14] of 100% and a residual activity [15] of 91.9%. For the same compound, the residual activity [16] was 83%, the inhibition [17] was 17.5% and the residual activity (LIM domain kinase 1) was 100%. The residual activity [18] was 91.9%, the residual activity [19] was 82.1% and the residual activity [20] was 67.2%. For the same compound, the residual activity [21] was 100%, the residual activity [22] was 83.8% and the residual activity [23] was 78.4%. It also gave a residual activity [24] of 82.6%, a residual activity [25] of 87.2% and a residual activity [26] of 85.9%. For the same compound, the residual activity [27] was 90.2%, the residual activity [28] was 100% and the residual activity [29] was 100%. For the same compound, the residual activity [30] was 97.4%, the residual activity [31] was 100% and the residual activity [32] was 98.6%. The residual activity [33] was 91.5%, the residual activity [34] was 100% and the residual activity [35] was 61.4%. It also gave an inhibition [36] of 8.33%, a residual activity [37] of 86.4% and a residual activity [38] of 95.3%. It also gave a residual activity [39] of 85.3%, a residual activity [40] of 100% and a residual activity [41] of 100%. For the same compound, the residual activity [42] was 95.9%, the residual activity [43] was 92.9% and the residual activity [44] was 100%.
With `Cc1cc(Nc2nccc(C)n2)cc(-c2cnc([C@@]3(O)CC[C@H](C(=O)O)C(C)(C)C3)s2)c1` [MRL-SYKi] the residual activity [1] was 77.3%, the residual activity [2] was 88% and the residual activity [3] was 97.5%. The inhibition [4] was -2.14%, the residual activity [5] was 50.7% and the residual activity [6] was 100%. The residual activity [7] was 100%, the residual activity [8] was 100% and the residual activity [9] was 61.8%. It also gave a residual activity [10] of 100%, a residual activity [11] of 100% and a residual activity [12] of 100%. The residual activity [13] was 100%, the residual activity [14] was 100% and the residual activity [15] was 100%. It also gave a residual activity [16] of 68.4%, an inhibition [17] of -0.0778% and a residual activity (LIM domain kinase 1) of 93.1%. It also gave a residual activity [18] of 100%, a residual activity [19] of 71.7% and a residual activity [20] of 60.3%. The residual activity [21] was 100%, the residual activity [22] was 97.9% and the residual activity [23] was 45.3%. It also gave a residual activity [24] of 90.3%, a residual activity [25] of 74.3% and a residual activity [26] of 78.2%. For the same compound, the residual activity [27] was 99.9%, the residual activity [28] was 100% and the residual activity [29] was 100%. It also gave a residual activity [30] of 69.4%, a residual activity [31] of 94.5% and a residual activity [32] of 100%. For the same compound, the residual activity [33] was 97%, the residual activity [34] was 87.6% and the residual activity [35] was 97.7%. For the same compound, the inhibition [36] was 17.3%, the residual activity [37] was 55.5% and the residual activity [38] was 85%. The residual activity [39] was 99.9%, the residual activity [40] was 100% and the residual activity [41] was 100%. The residual activity [42] was 78.1%, the residual activity [43] was 100% and the residual activity [44] was 70.7%.
